From PMC5001167 (Journal of medicinal chemistry, 2016)
Entries after “also recorded” stand apart in the source; their conditions may differ.

Experiments:
C57BL/6J mice = assay: Locomotor activity, basal and oxycodone-induced, open-field chambers
delta opioid receptor = delta opioid receptor (Homo sapiens, UniProt P41143); assay: Opioid receptor binding at 10 μM; details: at a concentration of 10 μM
mu opioid receptor = mu opioid receptor (Homo sapiens, UniProt P35372); assay: Opioid receptor binding at 10 μM; details: at a concentration of 10 μM
kappa opioid receptor = kappa opioid receptor (Homo sapiens, UniProt P41145); assay: Opioid receptor binding at 10 μM; details: at a concentration of 10 μM
Long-Evans rats = assay: Oxycodone-induced conditioned place preference; format: in vivo, rat
5HT1A = target: T1, 5HT1A (Homo sapiens, UniProt P08908); assay: 5HT1A [35S]GTPγS binding functional assay; format: biochemical
T1 sequence (P08908 1-422): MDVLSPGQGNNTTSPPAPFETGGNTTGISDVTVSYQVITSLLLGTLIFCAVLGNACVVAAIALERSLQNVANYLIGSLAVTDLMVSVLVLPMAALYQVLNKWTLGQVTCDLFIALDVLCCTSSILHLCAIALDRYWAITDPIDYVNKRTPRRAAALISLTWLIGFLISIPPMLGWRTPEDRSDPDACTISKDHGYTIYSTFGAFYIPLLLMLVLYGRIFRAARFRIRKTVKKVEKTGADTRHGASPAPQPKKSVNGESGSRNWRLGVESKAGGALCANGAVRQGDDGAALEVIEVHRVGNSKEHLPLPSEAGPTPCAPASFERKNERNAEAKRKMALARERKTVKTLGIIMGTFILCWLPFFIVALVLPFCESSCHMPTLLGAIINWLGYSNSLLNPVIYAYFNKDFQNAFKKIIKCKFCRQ

D2R = details: read-out: D2R Ki; eticlopride; cited from earlier work
dogs = details: cited from earlier work
[1] = cited from earlier work
human D3R = human D3R (Homo sapiens, UniProt P35462); format: binding; details: Table 2
human D4.4R = target: T2, human D4.4R (Homo sapiens, UniProt P21917); format: binding; details: read-out: D4.4R Ki ± S.E.M.; full-length analogues, Table 2; HEK 293
T2 sequence (P21917 1-419): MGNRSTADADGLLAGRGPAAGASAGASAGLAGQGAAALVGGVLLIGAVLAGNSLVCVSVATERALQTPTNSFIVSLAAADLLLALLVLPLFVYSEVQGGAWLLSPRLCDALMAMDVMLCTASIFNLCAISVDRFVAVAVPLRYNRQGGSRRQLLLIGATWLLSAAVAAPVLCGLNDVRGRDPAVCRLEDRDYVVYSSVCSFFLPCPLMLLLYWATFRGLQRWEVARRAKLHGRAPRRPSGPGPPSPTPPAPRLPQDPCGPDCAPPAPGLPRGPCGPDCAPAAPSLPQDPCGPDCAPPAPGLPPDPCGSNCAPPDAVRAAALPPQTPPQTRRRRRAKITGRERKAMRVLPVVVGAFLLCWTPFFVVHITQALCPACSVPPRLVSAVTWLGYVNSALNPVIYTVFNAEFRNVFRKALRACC

human D2LR = human D2LR (Homo sapiens, UniProt P14416); format: binding; details: read-out: D2LR Ki ± S.E.M.; full-length analogues, Table 2; HEK 293
Chain of human D2LR (P14416 whole entry): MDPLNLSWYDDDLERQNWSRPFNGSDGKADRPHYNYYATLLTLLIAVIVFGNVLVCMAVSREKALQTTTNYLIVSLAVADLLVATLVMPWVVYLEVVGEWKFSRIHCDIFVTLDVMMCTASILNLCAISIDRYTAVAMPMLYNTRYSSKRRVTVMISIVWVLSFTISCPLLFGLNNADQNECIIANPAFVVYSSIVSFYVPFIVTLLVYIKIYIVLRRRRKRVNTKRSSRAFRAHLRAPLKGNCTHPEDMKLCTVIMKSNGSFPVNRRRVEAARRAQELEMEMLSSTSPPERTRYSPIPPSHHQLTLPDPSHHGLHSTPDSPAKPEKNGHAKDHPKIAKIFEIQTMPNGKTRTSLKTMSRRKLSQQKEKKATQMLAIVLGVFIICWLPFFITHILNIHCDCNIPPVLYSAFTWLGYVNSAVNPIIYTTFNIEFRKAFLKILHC

Chain of human D3R (P35462 whole entry): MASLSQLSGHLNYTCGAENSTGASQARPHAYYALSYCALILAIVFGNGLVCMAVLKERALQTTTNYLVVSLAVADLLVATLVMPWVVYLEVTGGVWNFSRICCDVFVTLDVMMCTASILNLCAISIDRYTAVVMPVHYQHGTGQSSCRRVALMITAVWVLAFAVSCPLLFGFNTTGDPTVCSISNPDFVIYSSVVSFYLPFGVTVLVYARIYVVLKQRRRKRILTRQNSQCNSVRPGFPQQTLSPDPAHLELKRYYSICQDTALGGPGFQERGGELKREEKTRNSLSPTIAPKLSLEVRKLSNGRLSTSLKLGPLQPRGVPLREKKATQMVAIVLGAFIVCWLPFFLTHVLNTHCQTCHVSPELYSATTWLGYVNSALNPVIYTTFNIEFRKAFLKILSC
Chain of delta opioid receptor (P41143 whole entry): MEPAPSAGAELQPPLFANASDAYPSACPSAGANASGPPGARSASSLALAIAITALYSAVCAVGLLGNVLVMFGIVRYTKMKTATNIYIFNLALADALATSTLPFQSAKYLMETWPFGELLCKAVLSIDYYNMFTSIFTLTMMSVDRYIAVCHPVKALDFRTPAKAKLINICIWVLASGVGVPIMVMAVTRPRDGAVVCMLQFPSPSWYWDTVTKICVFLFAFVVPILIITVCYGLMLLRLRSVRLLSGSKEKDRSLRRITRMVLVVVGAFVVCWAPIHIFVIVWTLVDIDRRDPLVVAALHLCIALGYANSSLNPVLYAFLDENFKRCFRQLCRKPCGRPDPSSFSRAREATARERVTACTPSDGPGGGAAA
Chain of mu opioid receptor (P35372 whole entry): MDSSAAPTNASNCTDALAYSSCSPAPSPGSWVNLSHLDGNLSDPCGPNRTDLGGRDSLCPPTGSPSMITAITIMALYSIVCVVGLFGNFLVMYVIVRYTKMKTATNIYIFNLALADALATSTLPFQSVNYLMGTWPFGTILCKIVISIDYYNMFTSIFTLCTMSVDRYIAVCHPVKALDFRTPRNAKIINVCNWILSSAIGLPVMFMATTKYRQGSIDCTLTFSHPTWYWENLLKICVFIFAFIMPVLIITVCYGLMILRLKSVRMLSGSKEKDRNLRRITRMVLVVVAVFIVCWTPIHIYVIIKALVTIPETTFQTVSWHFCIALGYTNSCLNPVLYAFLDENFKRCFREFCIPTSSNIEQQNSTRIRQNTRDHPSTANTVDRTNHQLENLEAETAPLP
Chain of kappa opioid receptor (P41145 whole entry): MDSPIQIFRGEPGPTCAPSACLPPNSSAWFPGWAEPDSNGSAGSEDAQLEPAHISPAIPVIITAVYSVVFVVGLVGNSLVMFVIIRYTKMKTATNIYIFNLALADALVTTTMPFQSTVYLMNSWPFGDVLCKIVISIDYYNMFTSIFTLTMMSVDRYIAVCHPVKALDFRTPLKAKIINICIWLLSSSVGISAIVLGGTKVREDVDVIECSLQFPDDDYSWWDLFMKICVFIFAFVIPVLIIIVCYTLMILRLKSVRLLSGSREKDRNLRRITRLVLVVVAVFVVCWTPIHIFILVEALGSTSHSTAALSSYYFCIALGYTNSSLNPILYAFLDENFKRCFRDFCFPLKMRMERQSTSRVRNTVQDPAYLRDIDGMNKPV

## CCc1cc(Cl)c(OC)c(N2CCN(CC(O)CCNC(=O)c3cc4ccccc4[nH]3)CC2)c1 (stereo not shown) [Compound 19, N-(4-(4-(3-Chloro-5-ethyl-2-methoxyphenyl)piperazin-1-yl)-3-hydroxybutyl)-1H-indole-2-carboxamide]
C57BL/6J mice; mice, 5, 15 mg/kg i.p. 15 min before oxycodone 4 mg/kg, day 2
  effect on acute oxycodone-induced hyperactivity: attenuated; also recorded: dose-dependently inhibited
C57BL/6J mice; mice, 5, 15 mg/kg i.p. alone, day 1
  effect on basal locomotor activity: no effect on locomotion
C57BL/6J mice; mice, 5, 15 mg/kg i.p. daily before oxycodone 4 mg/kg, day 2-day 6
  effect on acquisition of repeated oxycodone-induced locomotor sensitization: dose-dependently blocked
C57BL/6J mice; mice, day 9, oxycodone 4 mg/kg challenge without pretreatment
  effect on expression of oxycodone prime-induced locomotor sensitization after 2 days of withdrawal: blocked; also recorded: long-lasting inhibition
Delta opioid receptor
  binding to delta opioid receptor: does not bind
Mu opioid receptor
  binding to mu opioid receptor: does not bind
Kappa opioid receptor
  binding to kappa opioid receptor: does not bind
Long-Evans rats; rats, 15 mg/kg i.p., p<0.05 compared to (Vehicle + oxycodone) group
  effect on oxycodone-induced CPP at 15 mg/kg: significant reduction
Long-Evans rats; rats, 15 mg/kg i.p., paired with saline, 15 mg/kg
  CPP produced by compound alone: did not produce CPP; also recorded: did not produce significant place preference
Long-Evans rats; rats, 5, 15 mg/kg i.p. 15 min before each oxycodone injection (3 mg/kg i.p.)
  effect on oxycodone-induced CPP: dose-dependently attenuated; also recorded: dose-dependently blocked

## CCc1cccc(N2CCN(CCCCNC(=O)c3cc4ccccc4[nH]3)CC2)c1Cl [Compound 22, N-(4-(4-(2-Chloro-3-ethylphenyl)piperazin-1-yl)butyl)-1H-indole-2-carboxamide]
5HT1A
  functional profile at 5HT1A: functional agonists

## CCc1cccc(N2CCN(CCCCNC(=O)c3cc4ccccc4o3)CC2)c1Cl [Compound 24, N-(4-(4-(2-Chloro-3-ethylphenyl)piperazin-1-yl)butyl)benzofuran-2-carboxamide]
5HT1A
  functional profile at 5HT1A: functional agonists

## CCc1cccc(N2CCN(CC(O)CCNC(=O)c3cc4ccccc4o3)CC2)c1Cl (stereo not shown) [Compound 25, N-(4-(4-(2-Chloro-3-ethylphenyl)piperazin-1-yl)-3-hydroxybutyl)benzofuran-2-carboxamide]
5HT1A
  functional profile at 5HT1A: functional agonists

## CCc1cc(Cl)c(OC)c(C(=O)NC[C@@H]2CCCN2CC)c1O [Eticlopride]
D2R
  Ki: 0.086 nM

## Cc1ncoc1-c1nnc(SCCCN2C[C@@H]3C[C@]3(c3ccc(C(F)(F)F)cc3F)C2)n1C [GSK598,809]
dogs
  blood pressure effect in the presence of cocaine: significant hypertension

## O=C(NCC[C@@H](O)CN1CCN(c2cccc(Cl)c2Cl)CC1)c1cc2ccccc2[nH]1 [R-PG648]
[1]
  metabolic stability: metabolic instability

## COc1ccc2c3c1O[C@H]1C(=O)CC[C@@]4(O)[C@@H](C2)N(C)CC[C@]314 [oxycodone, reference compound]
C57BL/6J mice; mice, oxycodone 4 mg/kg i.p.
  effect of oxycodone on locomotor activity: significant increases in locomotor activity
Long-Evans rats; rats, oxycodone 3 mg/kg i.p. versus saline conditioning
  CPP produced by oxycodone: produced significant CPP

## N-(4-(4-(2-Chloro-3-ethylphenyl)piperazin-1-yl)butyl)-6-methylimidazo[2,1-b]thiazole-5-carboxamide [Compound 28]
Human D3R; binding selectivity, ratio of Ki values (fold)
  D2R/D3R: 5
Human D3R; read-out: D3R Ki ± S.E.M., full-length analogues, HEK 293
  Ki: 0.941 ± 0.13 nM
Human D4.4R
  Ki: 143 ± 3.18 nM
Human D2LR
  Ki: 4.65 ± 1.24 nM
